Tests used:
[1] = molecular target: T1, FL-CHK1 (Homo sapiens, UniProt O14757); assay: CHK1 assay; format: biochemical; set-up: CHK1^b: unit not given here; details: Table A combinatorial examples; footnote b not given
T1 construct: C-terminally His-tagged full-length human CHK1 (FL-CHK1); 6xHis (C); made in house; host or cells: baculovirus/insect cells
T1 sequence (O14757 1-476): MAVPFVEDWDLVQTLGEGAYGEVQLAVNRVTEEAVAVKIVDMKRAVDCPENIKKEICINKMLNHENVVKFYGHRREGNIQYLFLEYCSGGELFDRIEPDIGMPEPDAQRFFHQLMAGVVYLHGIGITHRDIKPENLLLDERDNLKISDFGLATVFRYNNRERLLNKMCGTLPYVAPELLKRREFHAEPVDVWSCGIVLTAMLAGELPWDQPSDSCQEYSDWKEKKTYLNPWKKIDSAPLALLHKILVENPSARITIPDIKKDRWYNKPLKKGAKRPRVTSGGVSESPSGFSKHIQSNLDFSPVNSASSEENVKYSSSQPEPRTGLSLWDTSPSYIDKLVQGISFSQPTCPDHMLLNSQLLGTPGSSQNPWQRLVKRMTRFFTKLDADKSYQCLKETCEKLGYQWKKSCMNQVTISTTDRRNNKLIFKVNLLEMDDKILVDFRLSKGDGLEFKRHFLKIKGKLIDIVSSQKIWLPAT
Description: CHK-1 Construct for Assay: C-terminally His-tagged full-length human CHK1 (FL-CHK1) was expressed using the baculovirus/insect cell system. It contains 6 histidine residues (6×His-tag) at the C-terminus of the 476 amino acid human CHK1. The protein was purified by conventional chromatographic techniques.
The production of ADP from ATP that accompanies phosphoryl transfer to the synthetic substrate peptide Syntide-2 ([…]) was coupled to oxidation of NADH using phosphoenolpyruvate (PEP) through the actions of pyruvate kinase (PK) and lactic dehydrogenase (LDH). The oxidation of NADH was monitored by following the decrease of absorbance at 340 nm (ε340=6.22 cm^−1 mM^−1) using a HP8452 spectrophotometer. Typical reaction solutions contained: […]; 0.15 mM NADH; 28 units of LDH/ml; 16 units of PK/ml; 3 mM DTT; 0.125 mM Syntide-2; 0.15 mM ATP; 25 mM MgCl2 in 50 mM TRIS, pH 7.5; and 400 mM NaCl. Assays were initiated with 10 nM of FL-CHK1. Ki values were determined by measuring initial enzyme activity in the presence of varying concentrations of test compounds. The data were analyzed using Enzyme Kinetic and Kaleidagraph software.

[2] = molecular target: CDK2/Cyclin A complex (Homo sapiens, UniProt P24941); assay: CDK2/Cyclin A assay; format: biochemical; set-up: CDK2^c: concentration or dose not given beside the values; details: Table A combinatorial examples; footnote c not given
Description: CDK2/Cyclin A Construct for Assay: CDK2 was purified using published methodology (Rosenblatt et al., J. Mol. Biol., 230, 1317-1319 (1993)) from insect cells that had been infected with a baculovirus expression vector. Cyclin A was purified from E. coli cells expressing full-length recombinant cyclin A, and a truncated cyclin A construct was generated by limited proteolysis and purified as described previously (Jeffrey et al., Nature, 376, 313-320 (Jul. 27, 1995)).
CDK2/Cyclin A and CDK4/Cyclin D Assays
Cyclin-dependent kinase activity was measured by quantifying the enzyme-catalyzed, time-dependent incorporation of radioactive phosphate from [^32P]ATP into a recombinant fragment of the retinoblastoma protein. Unless noted otherwise, assays were performed in 96-well plates in a total volume of 50 μL, in the presence of 10 mM HEPES (N-[2-hydroxyethyl]piperazine-N′-[2-ethanesulfonic acid]) (pH 7.4), 10 mM MgCl2, 25 μM adenosine triphosphate (ATP), 1 mg/mL ovalbumin, 5 μg/mL leupeptin, 1 mM dithiothreitol, 10 mM β-glycerophosphate, 0.1 mM sodium vanadate, 1 mM sodium fluoride, 2.5 mM ethylene glycol-bis(β-aminoethyl ether)-N,N,N′N′-tetraacetic acid (EGTA), 2% (v/v) dimethylsulfoxide, and 0.03-0.2 μCi [^32P]ATP. The substrate (0.3-0.5 μg) was purified recombinant retinoblastoma protein fragment (Rb) (residues 386-928 of the native retinoblastoma protein; 62.3 kDa, containing the majority of the phosphorylation sites found in the native 106-kDa protein, as well as a tag of six histidine residues for ease of purification). Reactions were initiated with CDK2 (150 nM CDK2/Cyclin A complex) or CDK4 (50 nM CDK4/Cyclin D3 complex), incubated at 30° C., and terminated after 20 minutes by the addition of ethylenediaminetetraacetic acid EDTA) to 250 mM. The phosphorylated substrate was then captured on a nitrocellulose membrane using a 96-well filtration manifold, and unincorporated radioactivity was removed by repeated washing with 0.85% phosphoric acid. Radioactivity was quantified by exposing the dried nitrocellulose membranes to a phosphorimager. Apparent Ki values were measured by assaying enzyme activity in the presence of different compound concentrations and subtracting the background radioactivity measured in the absence of enzyme. The kinetic parameters (kcat, Km for ATP) were measured for each enzyme under the usual assay conditions by determining the dependence of initial rates on ATP concentration. The data were fit to an equation for competitive inhibition using Kaleidagraph (Synergy Software), or were fit to an equation for competitive tight-binding inhibition using the software KineTic (BioKin, Ltd.). Measured Ki values for known inhibitors against CDK4 and CDK2 agreed with published IC50 values. The specific activity of CDK4 was the same whether complexed to full-length cyclin D3 or the truncated Cyclin D3 construct; both complexes also yielded very similar Ki values for selected inhibitors.

[3] = molecular target: T2, phosphorylated VEGF-R2Δ50 (FLVK-P) (Homo sapiens, UniProt P35968, DEL940-989/E990V); assay: VEGF-R2 coupled spectrophotometric (FLVK-P) assay; format: biochemical; details: for FLVK-P % inhibition @ 50: at 50, concentration unit not printed (head nM); for Ki: spectrophotometric assay
T2 construct: VEGF-R2Δ50 contains residues 806-939 and 990-1171; made in house; host or cells: baculovirus/insect cells
Description: VEGF-R2 Construct for Assay: This construct determines the ability of a test compound to inhibit tyrosine kinase activity. A construct (VEGF-R2Δ50) of the cytosolic domain of human vascular endothelial growth factor receptor 2 (VEGF-R2) lacking the 50 central residues of the 68 residues of the kinase insert domain was expressed in a baculovirus/insect cell system. Of the 1356 residues of full-length VEGF-R2, VEGF-R2Δ50 contains residues 806-939 and 990-1171, and also one point mutation (E990V) within the kinase insert domain relative to wild-type VEGF-R2. Autophosphorylation of the purified construct was performed by incubation of the enzyme at a concentration of 4 μM in the presence of 3 mM ATP and 40 mM MgCl2 in 100 mM Hepes, pH 7.5, containing 5% glycerol and 5 mM DTT, at 4° C. for 2 h. […] See Parast et al., Biochemistry, 37, 16788-16801 (1998).
Coupled Spectrophotometric (FLVK-P) Assay
The production of ADP from ATP that accompanies phosphoryl transfer was coupled to oxidation of NADH using phosphoenolpyruvate (PEP) and a system having pyruvate kinase (PK) and lactic dehydrogenase (LDH). The oxidation of NADH was monitored by following the decrease of absorbance at 340 nm (e340=6.22 cm^−1 mM^−1) using a Beckman DU 650 spectrophotometer. Assay conditions for phosphorylated VEGF-R2Δ50 (indicated as FLVK-P in the tables below) were the following: 1 mM PEP; 250 μM NADH; 50 units of LDH/mL; 20 units of PK/mL; 5 mM DTT; 5.1 mM poly(E4Y1); 1 mM ATP; and 25 mM MgCl2 in 200 mM Hepes, pH 7.5. Assay conditions for unphosphorylated VEGF-R2Δ50 (indicated as FLVK in the tables) were the following: 1 mM PEP; 250 μM NADH; 50 units of LDH/mL; 20 units of PK/mL; 5 mM DTT; 20 mM poly(E4Y1); 3 mM ATP; and 60 mM MgCl2 and 2 mM MnCl2 in 200 mM Hepes, pH 7.5. Assays were initiated with 5 to 40 nM of enzyme. Ki values were determined by measuring enzyme activity in the presence of varying concentrations of test compounds. The data were analyzed using Enzyme Kinetic and Kaleidagraph software.

[4] = tested on: human umbilical vein endothelial cells (HUVEC); assay: HUVEC proliferation assay; format: cell-based; details: Homo sapiens, HUVEC
Method in brief: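 Exponentially growing HUVEC were serum-starved 24 h (F12K + 1% FBS), pre-treated 1 h with compound (0.1% DMSO final), then stimulated with 6 ng/ml VEGF. Proliferation was read 72 h later by MTT reduction (A595). IC50 came from seven 0.5-log concentrations in triplicate; screens gave % inhibition relative to VEGF-only and starved wells.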

T2 sequence (P35968 with tags, fused parts or gaps DEL940-989/E990V limits assumed): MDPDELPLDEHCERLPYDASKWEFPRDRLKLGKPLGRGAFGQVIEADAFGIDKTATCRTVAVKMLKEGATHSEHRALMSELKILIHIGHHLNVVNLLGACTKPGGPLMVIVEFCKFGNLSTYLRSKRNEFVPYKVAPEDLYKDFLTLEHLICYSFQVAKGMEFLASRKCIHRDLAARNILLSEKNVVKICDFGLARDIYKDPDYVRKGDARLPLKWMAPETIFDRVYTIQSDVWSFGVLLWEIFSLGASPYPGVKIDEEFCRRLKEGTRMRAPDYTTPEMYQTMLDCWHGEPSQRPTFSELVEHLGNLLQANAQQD

Structure (SMILES) | CHK1^b [1] | CDK2^c [2] | also measured
COc1cc(Nc2nc(N)c(-c3nc(-c4cc(Br)c(Cl)s4)cs3)s2)cc(OC)c1OC | 32 | −0.2 | –
COc1cccc(-c2csc(-c3sc(Nc4cc(OC)c(OC)c(OC)c4)nc3N)n2)c1 | 21.2 | −0.4 | –
CCOC(=O)c1ccccc1-c1csc(-c2sc(Nc3cc(OC)c(OC)c(OC)c3)nc2N)n1 | 41.4 | 4.4 | –
COc1cc(Nc2nc(N)c(-c3nc(-c4c(C)c(C)c(C)c(C)c4C)cs3)s2)cc(OC)c1OC | 48.3 | 19.8 | –
COc1cc(Nc2nc(N)c(-c3nc(-c4cc(-c5ccccc5)no4)cs3)s2)cc(OC)c1OC | 2.7 | 11.2 | –
COc1cc(Nc2nc(N)c(-c3nc(-c4cc(F)c(C)c(Cl)c4)cs3)s2)cc(OC)c1OC | 30.9 | −7.5 | –
COc1cc(Nc2nc(N)c(-c3nc(-c4cc(-c5ccc(Cl)c(Cl)c5)no4)cs3)s2)cc(OC)c1OC | 0.9 | 17.5 | –
CCCCCc1ccc(-c2csc(-c3sc(Nc4cc(OC)c(OC)c(OC)c4)nc3N)n2)cc1 | 8.9 | 11.3 | –
COc1cc(Nc2nc(N)c(-c3nc(-c4ccccc4OC(C)=O)cs3)s2)cc(OC)c1OC | −7.4 | 1.6 | –
COc1cc(Nc2nc(N)c(-c3nc(-c4c(Cl)cc(C(F)(F)F)cc4Cl)cs3)s2)cc(OC)c1OC | 26.2 | −6 | –
CCN(CC)c1ccc(-c2csc(-c3sc(Nc4cc(OC)c(OC)c(OC)c4)nc3N)n2)cc1 | 1.3 | 6.3 | –
COc1cc(Nc2nc(N)c(-c3nc(-c4csc5ccccc45)cs3)s2)cc(OC)c1OC | 13.2 | 9.1 | –
COc1cc(Nc2nc(N)c(-c3nc(-c4cc(C(=O)C(Cl)(Cl)Cl)n(C)c4)cs3)s2)cc(OC)c1OC | 6.4 | 3.9 | –
COc1cc(Nc2nc(N)c(-c3nc(-c4cc5cc(Cl)ccc5o4)cs3)s2)cc2c1OCCO2 | 25.4 | −6 | –
Nc1nc(NC(=O)c2cccs2)sc1-c1nc(-c2cccc(NC(=O)c3cccc(Cl)c3)c2)no1 [F(5), Thiophene-2-carboxylic acid (4-amino-5-{3-[3-(3-chloro-benzoylamino)-phenyl]-[1,2,4]oxadiazol-5-yl}-thiazol-2-yl)-amide] | – | – | FLVK-P % inhibition @ 50 ([3]; Table 1): 31% @
CCC(=O)Nc1nc(N)c(-c2nc(-c3cccc(NC(=O)c4cccc(Cl)c4)c3)no2)s1 [F(6), N-{3-[5-(4-Amino-2-propionylamino-thiazol-5-yl)-[1,2,4]oxadiazol-3-yl]-phenyl}-3-chloro-benzamide] | – | – | FLVK-P % inhibition @ 50 ([3]; Table 1): 34% @
Nc1nc(NC(=O)c2ccccc2)sc1-c1nc(-c2cccc(NC(=O)c3cccc(Cl)c3)c2)no1 [F(7), N-{3-[5-(4-amino-2-benzoylamino-thiazol-5-yl)-[1,2,4]oxadiazol-3-yl]-phenyl}-3-chloro-benzamide] | – | – | Ki ([3]; Table 1): 0.114 µM
CNC(=O)Nc1nc(N)c(-c2nc(-c3cccc(NC(=O)c4cccc(C)c4)c3)no2)s1 [F(8), N-(3-[5-[4-Amino-2-(3-methyl-ureido)-thiazol-5-yl]-[1,2,4]oxadiazol-3-yl}-phenyl)-3-methyl-benzamide] | – | – | Ki ([3]; Table 1): 0.0019 µM; IC50 ([4]; Table 1): 0.022 µM
COc1cc(Nc2nc(N)c(C3=N[C@@H](Cc4ccccc4)CO3)s2)cc(OC)c1OC [I(1), S-5-(4-Benzyl-4,5-dihydro-oxazol-2-yl)-N^2-(3,4,5-trimethoxyl-pheny)-thiazole-2,4-diamine] | – | – | Ki ([3]; Table 2): > 100 µM; IC50 ([4]; Table 2): 61 µM
COc1cc(Nc2nc(N)c(C3=NC(c4cccc(O)c4)CO3)s2)cc(OC)c1OC (centres unmarked) [I(9), S-3-{2-[4-Amino-2-(3,4,5-trimethoxy-phenylamino)-thiazol-5-yl]-4,5-dihydro-oxazol-4-yl}-phenol] | – | – | Ki ([3]; Table 2): 0.083 µM
COc1cc(Nc2nc(N)c(C3=NC(c4ccc(O)cc4)CO3)s2)cc(OC)c1OC (centres unmarked) [I(11), S-4-{2-[4-Amino-2-(3,4,5-trimethoxy-phenylamino)-thiazol-5-yl]-4,5-dihydro-oxazol-4-yl}-phenol] | – | – | Ki ([3]; Table 2): 0.53 µM
COc1cc(Nc2nc(N)c(C3=NC(c4ccc5ccccc5c4)CO3)s2)cc(OC)c1OC (centres unmarked) [I(20)] | – | – | inhibition at 100 µM ([3]; Table 2, at 100 μM): 46%

From patent publication US6620828B2, “Thiazole compounds and pharmaceutical compositions for inhibiting protein kinases and methods for their use” (Agouron Pharmaceuticals, Inc., priority 1999, dated 2003)
